# Data as given in patent publication US20230021483A1, “[…] […] METHOD AND CLASSIFICATION OF PHARMACEUTICAL COMPONENTS BY USING TRANSCRIPTOMES” (National Institutes of Biomedical Innovation, Health and …, priority 2016, published 2023).
# What was measured:
# LV, SP and LNs = test: Whole organ transcriptome across organs (adjuvant gene space): gene responses and adjuvant grouping; format: in vivo, C57BL/6 mice; settings: hierarchical clustering; LV, SP and/or LNs
# [1] = tested on: inguinal lymph nodes (LN); test: Whole organ transcriptome (GeneChip microarray) of draining inguinal lymph nodes 6 h after adjuvant administration: sDEGs, gene modules, hierarchical clustering; format: in vivo, C57BL/6 mice; as to adjuvant group (cluster) in LN: key: G1 (interferon signaling); G2 (metabolism of lipids and lipoproteins); G3 (response to stress); G4 (response to wounding); G5 (phosphate-containing compound metabolic process); G6 (phagosome)
# [2] = literature reports; cited from earlier work
# spleen (SP) = test: Whole organ transcriptome (GeneChip microarray) of spleen 6 h after adjuvant administration: sDEGs, hierarchical clustering; format: in vivo, C57BL/6 mice; as to adjuvant group (cluster) in SP: key: G1 (interferon signaling); G2 (metabolism of lipids and lipoproteins); G3 (response to stress); G4 (response to wounding); G5 (phosphate-containing compound metabolic process); G6 (phagosome)
# [3] = tested on: preferentially upregulated genes in LV, SP, LN; test: Z-score-based differential gene expression analysis (adjuvant group- or adjuvant-associated genes, 40 module mapping, TargetMine annotation); format: in vivo, C57BL/6 mice; settings: ID
# Procedure, shortened: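 Gene groups for each organ were built from combined z-score cutoffs across adjuvants, ranging from z>1 to z>3. Scores came from fold changes standardized per gene over the whole organ data set, with the three replicate z-scores added per adjuvant; sums above 3 marked preferential expression.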
compound,measurement,setting,value
"Cc1ccc2c(=O)c3cccc(CC(=O)O)c3oc2c1C [DMXAA, 5,6-dimethylxanthenone-4-acetic acid]",adjuvant group (cluster) within the adjuvant gene space,"LV, SP and LNs",group (G) 1
same,"module M40^LN (immune system process; dendritic cells, macrophages, neutrophils, stromal cells)","[1]; LN, 6 h",strongly induced
same,adjuvant group (cluster) in LN,"[1]; hierarchical clustering, lymph node",G1
same,"Number of gene probes with statistically significant changes (sDEGs), LN, Down","[1]; i.d. administration, lymph node, fold change <0.667, p<0.01, customized PA call=1, 6 h after adjuvant",261
same,"Number of gene probes with statistically significant changes (sDEGs), LN, Up","[1]; i.d. administration, lymph node, fold change >1.5, p<0.01, customized PA call=1, 6 h after adjuvant",1342
same,Th response induced,[2],induces Th2 responses
same,adjuvant group (cluster) in SP,spleen (SP); hierarchical clustering,G1
same,"Number of gene probes with statistically significant changes (sDEGs), SP, Down","spleen (SP); i.d. administration, fold change <0.667, p<0.01, customized PA call=1, 6 h after adjuvant",48
same,"Number of gene probes with statistically significant changes (sDEGs), SP, Up","spleen (SP); i.d. administration, fold change >1.5, p<0.01, customized PA call=1, 6 h after adjuvant",121
same,"z sum, 1428027_at LOC100653389","[3]; LN, Modules 26",−2.22
same,"z sum, 1419721_at Niacr1","[3]; LN, Modules 27",−1.88
same,"z sum, 1418424_at Tnfaip6","[3]; LN, Modules 29",−1.91
same,"z sum, 1419534_at Olr1","[3]; LN, Modules 29",−1.6
same,"z sum, 1421457_a_at Samsn1","[3]; LN, Modules 29",−2.04
same,"z sum, 1422305_at Ifnb1","[3]; LN, Modules 29",−1.99
same,"z sum, 1423028_at Ifna2","[3]; LN, Modules 29",−2.04
same,"z sum, 1425837_a_at Ccrn4l","[3]; LN, Modules 29",−1.85
same,"z sum, 1436387_at C330006P03Rik///Homer1","[3]; LN, Modules 29",−2.24
same,"z sum, 1439349_at Sbno2","[3]; LN, Modules 29",−1.84
same,"z sum, 1444010_at Eif4e","[3]; LN, Modules 29",−1.94
same,"z sum, 1448325_at Ppp1r15a","[3]; LN, Modules 29",−1.63
same,"z sum, 1449311_at Bach1","[3]; LN, Modules 29",−1.97
same,"z sum, 1450297_at Il6","[3]; LN, Modules 29",−1.88
same,"z sum, 1455197_at Rnd1","[3]; LN, Modules 29",−1.86
same,"z sum, 1455899_x_at Socs3","[3]; LN, Modules 29",−1.79
same,z sum,"[3]; LN, Modules 34",−2.09
same,"z sum, 1417252_at Ptgs2","[3]; LN, Modules 34",−1.55
same,"z sum, 1417263_at Ptgs2","[3]; LN, Modules 34",−1.77
same,"z sum, 1421473_at Il1a","[3]; LN, Modules 34",−1.71
same,"z sum, 1439981_at Tespa1","[3]; LN, Modules 35",−1.8
same,"z sum, 1441843_s_at 5230400M03Rik","[3]; LN, Modules 35",−2.25
same,"z sum, 1442556_at ---","[3]; LN, Modules 35",−2.03
same,"z sum, 1443414_at C78513","[3]; LN, Modules 35",−2.02
same,"z sum, 1444598_at ---","[3]; LN, Modules 35",−2
same,"z sum, 1445534_at ---","[3]; LN, Modules 35",−2
same,"z sum, 1446245_at ---","[3]; LN, Modules 35",−2.34
same,"z sum, 1457944_at ---","[3]; LN, Modules 35",−2.16
same,"z sum, 1458376_at B930025B16Rik","[3]; LN, Modules 35",−2.11
same,"z sum, 1459144_at ---","[3]; LN, Modules 35",−2.06
same,"z sum, 1425687_at Cflar","[3]; LN, Modules 36",−1.76
same,"z sum, 1427736_a_at Ccrl2","[3]; LN, Modules 36",−2.22
same,"z sum, 1449169_at Has2","[3]; LN, Modules 36",−2.25
same,"z sum, 1453636_at Pcgf5","[3]; LN, Modules 36",−2.11
same,"z sum, 1457888_at ---","[3]; LN, Modules 36",−2.02
same,"z sum, 1419508_at Ripk1","[3]; LN, Modules 37",−2.04
same,"z sum, 1421578_at Ccl4","[3]; LN, Modules 37",−1.85
same,"z sum, 1421679_a_at Cdkn1a","[3]; LN, Modules 37",−1.99
same,"z sum, 1424638_at Cdkn1a","[3]; LN, Modules 37",−1.71
same,"z sum, 1433508_at Klf6","[3]; LN, Modules 37",−1.54
same,"z sum, 1434350_at Csrnp1","[3]; LN, Modules 37",−1.99
same,"z sum, 1439680_at Tnfsf10","[3]; LN, Modules 37",−2.27
same,"z sum, 1448724_at Cish","[3]; LN, Modules 37",−1.56
same,"z sum, 1451340_at Arid5a","[3]; LN, Modules 37",−2.28
same,"z sum, 1453851_a_at Gadd45g","[3]; LN, Modules 37",−2
same,"z sum, 1457404_at Nfkbiz","[3]; LN, Modules 37",−2.06
same,"z sum, 1458589_at ---","[3]; LN, Modules 37",−1.59
same,"z sum, 1422054_a_at 5kil","[3]; LN, Modules 40",−1.69
same,"z sum, 1428735_at Cd69","[3]; LN, Modules 40",−2.42
same,"Adar 1425405_a_at (Group G1, Modules 20)","[3]; LV, sample x1",2.03
same,"Adar 1434268_at (Group G1, Modules 20)","[3]; LV, sample x1",2.15
same,"Ddx58 1436562_at (Group G1, Modules 20)","[3]; LV, sample x1",2.07
same,"Ddx58 1456890_at (Group G1, Modules 20)","[3]; LV, sample x1",1.67
same,"Eif2ak2 1422005_at (Group G1, Modules 20)","[3]; LV, sample x1",1.36
same,"G3bp2 1421323_a_at (Group G1, Modules 20)","[3]; LV, sample x1",1.32
same,"Gm9706///Isg15 1431591_s_at (Group G1, Modules 20)","[3]; LV, sample x1",1.28
same,"H2-T10///H2-T22///H2-T9 1449875_s_at (Group G1, Modules 20)","[3]; LV, sample x1",1.27
same,"Ifih1 1426276_at (Group G1, Modules 20)","[3]; LV, sample x1",1.25
same,"Ifit1 1450783_at (Group G1, Modules 20)","[3]; LV, sample x1",2.21
same,"Ifit3 1449025_at (Group G1, Modules 20)","[3]; LV, sample x1",1.39
same,"Irf7 1417244_a_at (Group G1, Modules 20)","[3]; LV, sample x1",1.05
same,"Irgm1 1418825_at (Group G1, Modules 20)","[3]; LV, sample x1",1.39
same,"Mndal 1426906_at (Group G1, Modules 20)","[3]; LV, sample x1",1.42
